Here are results for one compound from patent publication US20060058384A1, “Treatment of IGA nephropathy with omega-3 fatty acids” (PRONOVA BIOCARE, A.S., priority 2004, published 2006).

Entries after “also recorded” stand apart in the source; their conditions may differ.

The test concerns patients with IgA nephropathy. Description: Placebo-controlled clinical trial in IgA nephropathy: GFRest, UP/C and Composite Response/Outcome Scores. Type of test: in vivo, human. An excerpt: In a multicenter, placebo-controlled, double blind clinical trial, we evaluated the efficacy of a 24-month stable daily dose (4 grams per day) of a highly purified preparation of O3 (especially icosapent & doconexent).
We performed secondary analyses based on clinical response scores derived from changes in the level of proteinuria (defined by urine protein to creatinine ratios in first morning urine specimens) and GFRest. Composite Response Score, which represented changes in proteinuria and GFR scores were also calculated.
This was a placebo-controlled, prospective clinical trial. After fulfilling all entry criteria, patients were assigned to one of three treatment arms, as described in our paper discussing the primary analysis of this study.
Randomization of patients was stratified by hypertensive status and blocked randomization was used within each stratum.
Estimation of GFR and level of proteinuria. The glomerular filtration rate (GFR) was estimated at 6 monthly intervals in each patient using standard age-appropriate formulas. […] Serum creatinine measurements were measured by HPLC. […]
Statistical analysis: After it was noted that there was wide variation in the plasma phospholipid fatty acid profiles in patients receiving icosapent/doconexent (FIG. 1), a series of secondary analyses was conducted to determine the cause for this variability and to evaluate if the fatty acid profiles affected patient outcome. Clinical response scores were determined for each patient based on changes in the estimated GFR (−5 to +5) and urine protein/creatinine ratios (−5 to +5) at each 6 month visit up to 36 months. Composite response scores (−10 to +10) at each time interval were then determined based on the patients' combined GFR and UP/C Response Scores—with equal weight given to each (Table 1). Clinical outcome scores were then calculated based on the mean of the Composite Response Scores at 18 and 24 months. The dosage of the study drugs given to each patient was calculated as g/kg body weight and g/m^2 BSA. […]

As to `C[C@]12C=CC(=O)C=C1CC[C@@H]1[C@@H]2C(=O)C[C@@]2(C)[C@H]1CC[C@]2(O)C(=O)CO` [prednisone], the “Composite Response Scores, treatment arm as a whole” value (6-month intervals, 0 to 36 months, FIG. 2) was “significantly better; also recorded: better response”. Moreover, the “Primary analysis: decrease of GFR to less than 60% of baseline” value (24-month treatment, O3 4 grams per day, prednisone alternate-day) was “did not show a statistically significant benefit”. Further, the “Secondary analysis: efficacy by clinical response scores (proteinuria and GFRest)” value (secondary analyses) was “effective”.
